# Experimental data taken from patent US7662361B2, “Methods and compositions for modulating drug activity through telomere damage” (priority 1999, dated 2010).
# Experiments:
# Type in all cases: cell-based, human
# telomerase (hTR) = assay: Improved TRAP telomerase activity in hTR antisense transfected cells
# Procedure: First, the extraction procedures in the conventional TRAP were not sufficient to completely lyse the cell nuclei and the extraction efficiency varied with the ratio between the volume of the extraction buffer and the volume of cells. […] For the preparation of cell and tissue extracts, cells and tissue were harvested, washed, and stored at −70° C. Cells were then lysed in a SDS-based lysis buffer (10 mM Tris.HCl, pH 7.5, 1 mM MgCl2, 1 mM EGTA, 0.1 mM phenylmethylsulfonyl fluoride, 5 mM β-mercaptoethanol, 0.1% CHAPS, and 10% glycerol), on ice for 10 min. To this mixture, three volumes of CHAPS-based buffer (10 mM Tris-HCl, pH 7.5, 1 mM MgCl2, 1 mM EGTA, 0.1 mM phenylmethylsulfonyl fluoride, 5 mM β-mercaptoethanol, 0.5% CHAPS, and 10% glycerol) were added and kept on ice for 5 min. SDS is a strong detergent which can completely lyse the cell including the nucleus. […] The protein concentration of the supernatant was determined using Bicinchoninic Acid Kit (Sigma, St Louis, Mo.). […] Samples with equal amounts of protein (1-2 μg) were analyzed by TRAP. In this assay, the enzyme activity is measured as the synthesis of repeating telomere hexamers (TTAGGG; SEQ ID NO: 10). […]
# FaDu cells [1] = assay: Cell growth of hTR antisense transfected cells; conditions: stably transfected FaDu cells
# Excerpt: Transfection procedures. Transfection of the antisense construct used an IPTG-inducible mammalian expression system, i.e., the LacSwitch II system (Stratagene), which consists of a recombinant vector (i.e., pOPRSVI) and an operator vector (i.e., pCMVLacI). The pOPRSVI vector contains both ampicillin and G418^r resistance genes which facilitate the selection of positive clones from E. Coli and eukaryotic cells. The 8 unique cloning sites of the vector facilitate bi-directional insertion of a cDNA to produce either sense or antisense transcripts. The Lac repressor vector (pCMVLacI) produces the Lac repressor protein, which binds to and inhibits the operator sequence in the pOPRSVI vector and thereby inhibits the expression of the inserted gene. IPTG decreases the binding affinity of the Lac repressor protein to the operator sequence and triggers transcription and expression of the inserted gene. The transfection procedures consisted of stable transfection of FaDu cells with first, the pCMVLacI vector, and then second, the pOPRSVI/MCS vector which contained an antisense or sense hTR fragment. Transfection was performed using Lipofectamine-mediated gene transfer. The selection of the clones expressing the pCMVLacI repressor construct was performed using […] of the antibiotic hygromycin. The selection of the clones expressing the pOPRSVI vector using G418. […]
# FaDu cells [2] = assay: TALA telomere length in hTR antisense transfected cells
# [3] = system: telomerase activity of FaDu cells; assay: TRAP telomerase activity in drug-treated cells; conditions: cisplatin treatment, 48 to 96 hr
# Procedure: For the preparation of cell and tissue extracts, cells and tissue were harvested, washed, and stored at −70° C. Cells were then lysed in a SDS-based lysis buffer (10 mM Tris.HCl, pH 7.5, 1 mM MgCl2, 1 mM EGTA, 0.1 mM phenylmethylsulfonyl fluoride, 5 mM β-mercaptoethanol, 0.1% CHAPS, and 10% glycerol), on ice for 10 min. To this mixture, three volumes of CHAPS-based buffer (10 mM Tris-HCl, pH 7.5, 1 mM MgCl2, 1 mM EGTA, 0.1 mM phenylmethylsulfonyl fluoride, 5 mM β-mercaptoethanol, 0.5% CHAPS, and 10% glycerol) were added and kept on ice for 5 min. […] For the extraction of tissues, tissues were homogenized in SDS-based lysis buffer with a Kontes pellet pestle (Fisher, Pittsburgh, Pa.), mixed with three volumes of CHAPS-based buffer, and centrifuged were centrifuged at 8,000 g for 15 min at 4° C. The supernatant was kept at −20° C. The protein concentration of the supernatant was determined using Bicinchoninic Acid Kit (Sigma, St Louis, Mo.). The protein concentration was adjusted to 0.5 μg/μl with CHAPS-based buffer. Samples with equal amounts of protein (1-2 μg) were analyzed by TRAP. […] The TRAP reaction mixture contained 2-4 μl of protein extract, 20 mM Tris.HCl (pH 8.3), 1.5 mM MgCl2, 63 mM KCl, 0.005% Tween-20, 1 mM EGTA, 50 μM dNTPs, 0.1 μg of TS primer, 0.1 mg/ml bovine serum albumin. The mixture was incubated at 30° C. for 30 min, then at 90° C. for 2 min.
# This was accomplished by using phenol/chloroform extraction of the cell lysate, as follows. One μg of tRNA and 0.1 ng internal control template were added to the reaction solution after primer extension. The total volume of the mixture was brought to 100 μl with water, mixed with an equal volume of buffer saturated phenol (Life Technology) and then centrifuged at 18,000 g for 3 min, at room temperature. The top aqueous layer (90 μl) was carefully transferred to a new tube and mixed with an equal volume of chloroform:isoamyl alcohol (24:1) solution and centrifuged at 18,000 g for 3 min, at room temperature. The top aqueous layer (80 μl) was again transferred to a new tube and the nucleotides were precipitated with 0.2 volume of 3 M sodium acetate (pH 5.3) and 3 volume of 100% ethanol at −70° C. for at least 2 hr. The mixture was centrifuged at 18,000 g for 15 min at 4° C. […]
# The template for the internal standard was amplified by PCR and purified by spin columns (QIAquick PCR purification kit, Qiagen, Valencia, Calif.). The concentration was determined by a spectrophotometer.
# PCR was performed on the GeneAmp PCR system 2400 (Perkin Elmer) and initiated by 1 cycle at 94° C. for 3 min, 50° C. for 4 min, and 68° C. for 2 min, then 25 rounds at 94° C. for 30 sec, 50° C. for 30 sec, and 68° C. for 90 sec, followed by 68° C. for 10 min. […] The gel was then dried and the amplification products were detected. […]
# FaDu cells [4] = assay: Cell detachment from the growth surface
# Procedure: Upon drug treatment, the supernatant along with two subsequent Versene rinses, which contained the detached cells, were collected. […] These samples were centrifuged at 1500 rpm for 10 min and the resulting cell pellets were resuspended in 2 ml of culture media. The cell number in the detached and attached fractions were counted using a Coulter counter (Coulter Electronic, Inc., Hialeah, Fla.).
# Treatment with the above agents was initiated after cells were allowed to attach to the growth surface in culture flasks. On the day of experiments, the culture medium was removed and replaced with drug-containing medium. […] For d4T, two concentrations, 20 μM and 40 μM were used.
# Agent effect was measured in three ways, i.e., enumeration of the number of cells that remained attached in culture flask, enumeration of the number of cells that detached from the growth surface, and by measuring changes in apoptosis. […] The drug-induced detachment of cells from the growth surface was determined by counting the attached and detached cells.
smiles,measurement,setting,value
CC(C)S[C@@H]1O[C@H](CO)[C@H](O)[C@H](O)[C@H]1O [+IPTG],telomerase activity,telomerase (hTR),98.9 % of control
same,Doubling time,FaDu cells [1],23 h
same,Terminal restriction fragment,FaDu cells [2],2.91 kb
N.N.[Cl][Pt][Cl] [cisplatin],telomerase activity,[3],50 % of the baseline level
"Cc1cn([C@H]2C=C[C@@H](CO)O2)c(=O)[nH]c1=O [d4T, 3′-deoxy-2′,3′-didehydrothymidine]",detachment of cells from the growth surface,FaDu cells [4]; d4T 20 μM and 40 μM,< 8%
same,effect of addition of d4T to paclitaxel on detached cell fraction,FaDu cells [4]; d4T 20 or 40 μM,significantly enhanced the detached cell fraction
